Experimental data from US9650390B2, “Water-soluble taxane derivatives and uses thereof” (priority 2014, dated 2017).
Where a name gives a salt, the structure may show the parent alone.

Key:
[1] = In vitro dissociation in blood plasma of rat; format: in vitro ADME, SD rats; conditions: fresh SD rat plasma, 37° C.; for Sampling time/Dissociation percent (%) 2 min: 2 min incubation; for Sampling time/Dissociation percent (%) 5 min: 5 min incubation; for Sampling time/Dissociation percent (%) 10 min: 10 min incubation
Protocol: The obtained water soluble taxane derivatives of the following formulae were formulated as 0.2 mg/ml aqueous solutions. […] After 2 min, 5 min and 10 min of incubation, 0.2 ml of solutions were respectively taken from each of the samples, and added to acetonitrile (0.4 ml) cooled to −20° C. for precipitation of protein.

[2] = In vitro dissociation in blood plasma of rabbit; format: in vitro ADME, New Zealand white rabbits; conditions: fresh New Zealand white rabbit plasma, 37° C.
Protocol: The obtained water soluble taxane derivatives of the following formulae were formulated as 0.2 mg/ml aqueous solutions. […]

[3] = system: human prostate cancer PC-3; experiment: Inhibitory activity of docetaxel derivatives on subcutaneously xenografted tumor PC-3 in nude mice; format: in vivo; conditions: 33.6 mg/kg, D0 IV; for Weight change (%) D6: nude mice; for T/C (%) D20 / Tumor volume (mm^3) (D20) / Tumor inhibitory percent (%) D20 / Tumor volume (mm^3) (D0): PC-3 xenograft in nude mice; for Tumor inhibitory percent (%) D20: P = 0.000 vs control; for Tumor volume (mm^3) (D0): baseline at grouping (D0)
Description: Purpose: to evaluate and compare the inhibitory activity of the water soluble docetaxel derivatives and docetaxel on subcutaneously xenografted tumor of human prostate cancer PC-3 in nude mice
Human prostate cancer PC-3 cells were subcutaneously inoculated into nude mice. After the tumor volume reached 100-150 mm^3, the animals were randomly divided into several groups, and administered with the water soluble docetaxel derivatives of the following formula and docetaxel, respectively once on the same day (D0). The tumor volume was measured 2-3 times per week, the animals were weighed and the data were recorded until day 20 (D20) after grouping.
The tumor volume (V) was calculated according to the equation: V=½×a×b^2, wherein a and b represent the length and the width, respectively.
T/C (%)=(T−T0)/(C−C0)×100, wherein T and C represent the tumor volume at the end of the experiment; and T0 and C0 represent the tumor volume at the beginning of the experiment.

Row | Compound | Sampling time/Dissociation percent (%) 2 min [1] | Sampling time/Dissociation percent (%) 5 min [1] | Sampling time/Dissociation percent (%) 10 min [1] | Sampling time/Dissociation percent (%) 2 min [2] | Sampling time/Dissociation percent (%) 5 min [2] | Sampling time/Dissociation percent (%) 10 min [2] | Weight change (%) D6 [3] | T/C (%) D20 [3] | Tumor volume (mm^3) (D20) [3] | Tumor inhibitory percent (%) D20 [3] | Tumor volume (mm^3) (D0) [3]
1 | 2′-O-[4-(aziridin-1-yl)amino-2,2-difluoroheptanoyl]docetaxel methanesulfonate [Compound 14] | 42.1% | 55.7% | 72.5% | – | – | – | – | – | – | – | –
2 | CCCCC(CC(F)(C(=O)OC(C(=O)OC1CC2(O)C(OC(=O)c3ccccc3)C3C4(OC(C)=O)COC4CC(O)C3(C)C(=O)C(OC(C)=O)C(=C1C)C2(C)C)C(NC(=O)c1ccccc1)c1ccccc1)C(F)(F)F)N(C)C1CCCC1.Cl (mixture of isomers) [Compound C15, 2′-O-[4-N-methyl-N-cyclopentylamino-2-trifluoromethyl-2-fluorooctanoyl]paclitaxel hydrochloride] | 34.2% | 45.3% | 58.2% | – | – | – | – | – | – | – | –
3 | CO[C@H]1C(=O)[C@]2(C)[C@@H](OC)C[C@H]3OC[C@@]3(OC(C)=O)[C@H]2[C@H](OC(=O)c2ccccc2)[C@]2(O)C[C@H](OC(=O)[C@H](OC(=O)[C@H](F)CCN(C)C)[C@@H](NC(=O)OC(C)(C)C)c3ccccc3)C(C)=C1C2(C)C [Compound 07, 2′-O-[4-N,N-dimethylamino-2(R)-fluorobutyryl]cabazitaxel hydrochloride] | 49.5% | 89.6% | 100% | 79.2% | 95.5% | 100% | – | – | – | – | –
4 | CO[C@H]1C(=O)[C@]2(C)[C@@H](OC)C[C@H]3OC[C@@]3(OC(C)=O)[C@H]2[C@H](OC(=O)c2ccccc2)[C@]2(O)C[C@H](OC(=O)[C@H](OC(=O)[C@@H](F)CCN(C)C)[C@@H](NC(=O)OC(C)(C)C)c3ccccc3)C(C)=C1C2(C)C.Cl [Compound 08, 2′-O-[4-N,N-dimethylamino-2(S)-fluorobutyryl]cabazitaxel hydrochloride] | 47.6% | 87.6% | 100% | 89.9% | 93.2% | 100% | – | – | – | – | –
5 | COC1C(=O)C2(C)C(OC)CC3OCC3(OC(C)=O)C2C(OC(=O)c2ccccc2)C2(O)CC(OC(=O)C(OC(=O)C(F)CCN(C)C)C(NC(=O)OC(C)(C)C)c3ccccc3)C(C)=C1C2(C)C.Cl [Compound 09, 2′-O-[4-N,N-dimethylamino-2(R,S)-fluorobutyryl]cabazitaxel hydrochloride] | 47.8% | 89.1% | 100% | 83.2% | 97.1% | 100% | – | – | – | – | –
6 | COC1C(=O)C2(C)C(OC)CC3OCC3(OC(C)=O)C2C(OC(=O)c2ccccc2)C2(O)CC(OC(=O)C(OC(=O)C(CCN)C(F)F)C(NC(=O)OC(C)(C)C)c3ccccc3)C(C)=C1C2(C)C.O=S(=O)([O-])O.[Na+] [Compound 10, 2′-O-[4-amino-2(R)-difluoromethylbutyryl]cabazitaxel sodium bisulfate salt] | 45.2% | 86.5% | 96.8% | 38.1% | 63.2% | 80.3% | – | – | – | – | –
7 | CCN(CC)CC[C@](C)(C(=O)O[C@@H](C(=O)O[C@H]1C[C@@]2(O)[C@@H](OC(=O)c3ccccc3)[C@@H]3[C@]4(OC(C)=O)CO[C@@H]4C[C@H](OC)[C@@]3(C)C(=O)[C@H](OC)C(=C1C)C2(C)C)[C@@H](NC(=O)OC(C)(C)C)c1ccccc1)C(F)(F)F.CS(=O)(=O)O [Compound 11, 2′-O-[4-N,N-diethylamino-2-methyl-2(R)-2-trifluoromethylbutyryl]cabazitaxel methanesulfonate] | 52.3% | 89.6% | 97.2% | 56.2% | 80.5% | 92.1% | – | – | – | – | –
8 | CCN(C)C(C)C[C@H](CC(F)F)C(=O)O[C@@H](C(=O)O[C@H]1C[C@@]2(O)[C@@H](OC(=O)c3ccccc3)[C@@H]3[C@]4(OC(C)=O)CO[C@@H]4C[C@H](O)[C@@]3(C)C(=O)[C@H](O)C(=C1C)C2(C)C)[C@@H](NC(=O)OC(C)(C)C)c1ccccc1.Cl (stereo partly drawn) [Compound 12, 2′-O-[4-N-methyl-N-ethylamino-2(R)-2-difluoroethylvaleryl]docetaxel hydrochloride] | 43.6% | 75.6% | 89.6% | 35.2% | 61.3% | 73.2% | – | – | – | – | –
9 | CO[C@H]1C(=O)[C@]2(C)[C@@H](OC)C[C@H]3OC[C@@]3(OC(C)=O)[C@H]2[C@H](OC(=O)c2ccccc2)[C@]2(O)C[C@H](OC(=O)[C@H](OC(=O)[C@@H](CCN)C(F)F)[C@@H](NC(=O)OC(C)(C)C)c3ccccc3)C(C)=C1C2(C)C.O=S(=O)(O)O [Compound C10, 2′-O-[4-amino-2(R)-difluoromethylbutyryl]cabazitaxel sulfate] | 45.6% | 87.1% | 97.3% | 48.9% | 68.4% | 91.3% | – | – | – | – | –
10 | CCN(CC)CC[C@](C)(C(=O)O[C@@H](C(=O)O[C@H]1C[C@@]2(O)[C@@H](OC(=O)c3ccccc3)[C@@H]3[C@]4(OC(C)=O)CO[C@@H]4C[C@H](OC)[C@@]3(C)C(=O)[C@H](OC)C(=C1C)C2(C)C)[C@@H](NC(=O)OC(C)(C)C)c1ccccc1)C(F)(F)F.Cl [Compound C11, 2′-O-[4-N,N-diethylamino-2-methyl-2(R)-2-trifluoromethylbutyryl]cabazitaxel hydrochloride] | 51.2% | 88.4% | 95.9% | 61.2% | 84.5% | 96.3% | – | – | – | – | –
11 | CCCC(CC(F)(F)C(=O)O[C@@H](C(=O)O[C@H]1C[C@@]2(O)[C@@H](OC(=O)c3ccccc3)[C@@H]3[C@]4(OC(C)=O)CO[C@@H]4C[C@H](O)[C@@]3(C)C(=O)[C@H](O)C(=C1C)C2(C)C)[C@@H](NC(=O)OC(C)(C)C)c1ccccc1)N1CC1.Cl (some centres unmarked) [Compound C14, 2′-O-[4-(aziridin-1-yl)amino-2,2-difluoroheptanoyl]docetaxel hydrochloride] | 41.9% | 54.4% | 71.3% | – | – | – | – | – | – | – | –
12 | CCN(C)CCC(F)C(=O)OC(C(=O)OC1CC2(O)C(OC(=O)c3ccccc3)C3C4(OC(C)=O)COC4CC(O)C3(C)C(=O)C(O)C(=C1C)C2(C)C)C(NC(=O)OC(C)(C)C)c1ccccc1.CS(=O)(=O)O [Compound C25, 2′-O-[4-N-methyl-N-ethylamino-2(R)-fluorobutyryl]docetaxel methanesulfonate] | – | – | – | – | – | – | −13.6% | −62% | 30.4 ± 11.1 mm^3 | 143% | 113.8 ± 3.0 mm^3
13 | CCN(CC)CCC(F)C(=O)OC(C(=O)OC1CC2(O)C(OC(=O)c3ccccc3)C3C4(OC(C)=O)COC4CC(O)C3(C)C(=O)C(O)C(=C1C)C2(C)C)C(NC(=O)OC(C)(C)C)c1ccccc1.O=C(O)C=CC(=O)O [Compound C26, 2′-O-[4-N,N-diethylamino-2(S)-fluorobutyryl]docetaxel maleate] | – | – | – | – | – | – | −14.1% | −52% | 32.4 ± 13.5 mm^3 | 120% | 114.4 ± 2.8 mm^3
14 | CC(=O)O[C@@]12CO[C@@H]1C[C@H](O)[C@@]1(C)C(=O)[C@H](O)C3=C(C)[C@@H](OC(=O)[C@H](OC(=O)[C@H](F)CCN(C)C(C)C)[C@@H](NC(=O)OC(C)(C)C)c4ccccc4)C[C@@](O)([C@@H](OC(=O)c4ccccc4)[C@H]21)C3(C)C.Cl [Compound C27, 2′-O-[4-N-methyl-N-isopropylamino-2(R)-fluorobutyryl]docetaxel hydrochloride] | – | – | – | – | – | – | −14.4% | −44% | 35.3 ± 14.7 mm^3 | 101% | 116.3 ± 3.7 mm^3
15 | CC(=O)O[C@@]12CO[C@@H]1C[C@H](O)[C@@]1(C)C(=O)[C@H](O)C3=C(C)[C@@H](OC(=O)[C@H](OC(=O)[C@@H](CCN(C)C)C(F)(F)F)[C@@H](NC(=O)OC(C)(C)C)c4ccccc4)C[C@@](O)([C@@H](OC(=O)c4ccccc4)[C@H]21)C3(C)C.CS(=O)(=O)O [Compound C28, 2′-O-[4-N,N-dimethylamino-2(R)-2-trifluoromethylbutyryl]docetaxel methanesulfonate] | – | – | – | – | – | – | −13.9% | −46% | 34.5 ± 12.6 mm^3 | 105% | 113.5 ± 2.8 mm^3
